The nature of series [1]: Pharmacokinetic study in sham and myocardial ischemia model rats after a single oral dose of QSKL (UHPLC-psMS/MS of plasma, non-compartmental analysis). The settings on record: QSKL-treated plasma samples, sham and model rats, single oral dose 8.0 g/kg.
Method: (§1) Twelve male Spargue-Dawley rats (200 ± 20 g) were supplied by Vital River Laboratory Animal Technology Co. Ltd. (Beijing, China). […] The rats were acclimated under a humidity (50%) controlled room at 22–25 °C with a 12 h light-dark cycle, and standard diet and water were provided ad libitum for one week.
(§2) Afterwards, all rats were randomly divided into two groups, namely sham and model groups. The myocardial ischemia model was simulated by left anterior descending (LAD) coronary artery ligation [12], whilst the rats belonging to the sham group received the similar surgery, however no actual ligation in LAD. All animals were fasted overnight with free access to water prior to oral dosing. Aliquots (250 μL) of blood were sampled at 0 (pre-dose), 0.08, 0.25, 0.5, 0.75, 1, 1.5, 2, 4, 6, 8, 12, and 24 h from venous around eye socket into heparinized tubes after a single oral dosing of 8.0 g/kg of QSKL and the collected blood samples were immediately subjected for 4000 rpm centrifugation for 10 min at 4 °C to harvest the plasma samples. Each 100 μL aliquot of plasma sample was transferred into another Eppendorf tube and stored at −80 °C till use.
(§3) When analysis, 300 μL of internal standards (200 ng/mL for either internal standard) fortified ACN, corresponding to three volumes of plasma, was spiked into each thawed plasma sample and mixed thoroughly. Then, the resulting samples were processed as those calibration samples.
(§4) Individual animal plasma concentrations versus time dataset were subjected to a non-compartmental pharmacokinetic analysis using WinNonlin software (ver. 6.4, Pharsight Corp., Sunnyvale, CA, USA). The pharmacokinetic parameters of each analyte including the maximum plasma concentration (Cmax), the time at which Cmax was achieved (Tmax), the terminal elimination half-life (t1/2), and the area under the plasma concentration versus time curve (AUC0→t along with AUC0→∞) were calculated. Moreover, Lz corresponding to the ratio of the dosage and AUC0→∞, as well as mean residence time (MRT) that was defined as the ratio of the area under the first moment curve from time 0 to infinity (AUMC0→∞/AUC0→∞) was also calculated. All results are expressed as mean ± SD. Comparisons regarding the pharmacokinetic parameters were carried out between sham and model groups using Student’s t-test, and p values less than 0.05 were considered to be significant.
The nature of the next series: in vivo. The settings on record: male, Sprague-Dawley, rat, po, 8 g/kg; for AUC(0-t): AUC0–t; for AUC(0-inf): AUC0–∞.
The conditions of series [2]: male, Sprague-Dawley, rat, in vivo, po, 8 g/kg.
Method: as §1, §2, §3, §4
Setting [3] is: model group (MG, myocardial ischemia) rats, oral administration of QSKL, plasma, mean ± SD, n = 6.
Where [4] appears, read: sham group (SG) rats, oral administration of QSKL, plasma, mean ± SD, n = 6.
Setting [5] is: t1/2, model group (MG, myocardial ischemia) rats, oral administration of QSKL, plasma, mean ± SD, n = 6.
[6] abbreviates: t1/2, sham group (SG) rats, oral administration of QSKL, plasma, mean ± SD, n = 6.

From PMC6150229, “Simultaneous Determination of Twenty-Five Compounds in Rat Plasma Using Ultra-High Performance Liquid Chromatography-Polarity Switching Tandem Mass Spectrometry and Its Application to a Pharmacokinetic Study” (Molecules : A Journal of Synthetic Chemistry and Natural …, 2017) come the findings set out here.

Like-named read-outs stand apart in the source and are kept apart here.

Method for in vivo: as §1, §2, §3, §4

In the case of `COCC12CCC(OC)C34C5CC6(O)C(OC)C(O)C(O)(C5C6OC(=O)c5ccccc5)C(C(OC)C13)C4N(C)C2` (stereo not shown) [benzoylhypaconine], the “distribution in rat plasma (quantifiable or not)” value in series [1] is “quantifiable in most samples”. In “in vivo” (setting [3]), this compound returned an exposure AUC(0-t) of 0.926 ± 0.279 ng·h/mL, a total exposure AUC(0-inf) of 1.66 ± 0.331 ng·h/mL, a peak concentration (Cmax) of 0.466 ± 0.302 ng/mL and a mean residence time MRT of 23.6 ± 7.39 h. For the same compound, in the series “in vivo” (setting [3]), the Tmax worked out at 25.8 ± 21.6 min. In the series “in vivo” (setting [4]), this compound showed an AUC(0-t) of 0.985 ± 0.167 ng·h/mL, an AUC(0-inf) of 1.78 ± 0.905 ng·h/mL, a Cmax of 0.284 ± 0.209 ng/mL and a mean residence time (MRT) of 22.7 ± 14.9 h. In addition, the time of peak concentration (Tmax) in the series “in vivo” (setting [4]) worked out at 28.8 ± 19.8 min. In addition, the half-life in the series “in vivo” (setting [5]) was 978 ± 328 min. The half-life in the series “in vivo” (setting [6]) is 936 ± 544 min.

As for `COCC12CN(C)C3C4C(OC)C1C3(C(OC)CC2O)C1CC2(O)C(OC)C(O)C4(O)C1C2OC(=O)c1ccccc1` (stereo not shown) [benzoylmesaconine], the “distribution in rat plasma (quantifiable or not)” value in series [1] is “quantifiable in most samples”. In “in vivo” (setting [3]), this compound registered an area under the curve AUC(0-t) of 7.34 ± 7.1 ng·h/mL, a total exposure AUC(0-inf) of 11.1 ± 11 ng·h/mL, a Cmax of 3.1 ± 2.49 ng/mL and a mean residence time MRT of 13.7 ± 6.58 h. The Tmax in “in vivo” (setting [3]) was 28.2 ± 19.8 min. In “in vivo” (setting [4]), this compound registered an AUC(0-t) of 5.82 ± 2.93 ng·h/mL, a total exposure AUC(0-inf) of 8.3 ± 6.14 ng·h/mL, a Cmax of 1.15 ± 0.778 ng/mL and a mean residence time (MRT) of 20.1 ± 10.3 h. Besides, in the series “in vivo” (setting [4]), the time to peak (Tmax) came out at 25.2 ± 22.2 min. Besides, the half-life in the series “in vivo” (setting [5]) is 586 ± 322 min. The same compound gave a half-life in “in vivo” (setting [6]) of 780 ± 380 min.

For the compound `C[C@H]1COC2=C1C(=O)C(=O)c1c2ccc2c1CCCC2(C)C` [cryptotanshinone], in series [2], the “AUC0–t” value turned out to be 10.2 ± 2.21 ng·h/mL, the “AUC0–∞” value was 16.4 ± 8.86 ng·h/mL and the mean residence time MRT was 25.6 ± 20.1 h. In the series “in vivo”, this compound displayed an area under the curve AUC(0-t) of 8.77 ± 2.26 ng·h/mL, an area under the curve AUC(0-inf) of 12 ± 5.01 ng·h/mL, a peak concentration (Cmax) of 0.898 ± 0.29 ng/mL and an MRT of 19.3 ± 6.01 h. The same compound showed a half-life in “in vivo” (t1/2) of 732 ± 312 min.

In the case of `Cc1cccc2c3c(ccc12)C1=C(C(=O)C3=O)[C@@H](C)CO1` [dihydrotanshinone I], in series [2], the “AUC0–t” value is listed as 4.67 ± 2.23 ng·h/mL, the “AUC0–∞” value was determined as 5.98 ± 5.34 ng·h/mL and the mean residence time (MRT) came to 14.8 ± 9.29 h. In the series “in vivo”, this compound came in with an exposure AUC(0-t) of 4.99 ± 2.18 ng·h/mL, an AUC(0-inf) of 4.47 ± 0.864 ng·h/mL, a Cmax of 0.618 ± 0.25 ng/mL and an MRT of 8.22 ± 1.2 h. Besides, the time of peak concentration (Tmax) in “in vivo” amounted to 480 min. The compound also showed a half-life in the series “in vivo” (t1/2) of 234 ± 51.5 min.

Consider `COC[C@@]12CC[C@H](OC)[C@]34C(C([C@H](OC)[C@H]13)[C@]1(OC(C)=O)[C@H]3[C@@H](OC(=O)c5ccccc5)[C@](O)(C[C@H]34)[C@@H](OC)[C@@H]1O)N(C)C2` [hypaconitine], for which the “distribution in rat plasma (quantifiable or not)” value in series [1] is recorded as “quantifiable in most samples”. In the series “in vivo” (setting [3]), this compound yielded an AUC(0-t) of 0.567 ± 0.26 ng·h/mL, an AUC(0-inf) of 0.552 ± 0.148 ng·h/mL, a maximum concentration (Cmax) of 0.156 ± 0.134 ng/mL and an MRT of 11.9 ± 3.73 h. For the same compound, the time of peak concentration (Tmax) in the series “in vivo” (setting [3]) was determined as 92.4 ± 42.6 min. In “in vivo” (setting [4]), this compound registered an AUC(0-t) of 0.824 ± 0.249 ng·h/mL, an AUC(0-inf) of 0.967 ± 0.303 ng·h/mL, a Cmax of 0.101 ± 0.0328 ng/mL and a mean residence time MRT of 11.7 ± 2.83 h. Moreover, the Tmax in “in vivo” (setting [4]) came out at 125 ± 96 min. Moreover, in the series “in vivo” (setting [5]), the half-life was 447 ± 70.8 min. In the series “in vivo” (setting [6]), the half-life was 520 ± 103 min.

Turning to `O=C(/C=C/c1ccc(O[C@@H]2O[C@H](CO)[C@@H](O)[C@H](O)[C@H]2O)cc1)c1ccc(O)cc1O` [isoliquiritin], the “distribution in rat plasma (quantifiable or not)” value in series [1] is recorded as “quantifiable in most samples”. In “in vivo” (setting [3]), this compound registered an area under the curve AUC(0-t) of 1.58 ± 0.493 ng·h/mL, an AUC(0-inf) of 1.86 ± 0.632 ng·h/mL, a Cmax of 0.85 ± 0.761 ng/mL and an MRT of 10.2 ± 4.65 h. In “in vivo” (setting [3]), the Tmax came out at 25.8 ± 21.6 min. In the series “in vivo” (setting [4]), the AUC(0-t) came out at 1.39 ± 0.36 ng·h/mL, the total exposure AUC(0-inf) was found to be 1.64 ± 0.474 ng·h/mL, the Cmax is 0.389 ± 0.167 ng/mL and the MRT was found to be 10.5 ± 3.13 h. In addition, the time of peak concentration (Tmax) in “in vivo” (setting [4]) was determined as 21.6 ± 18.6 min. In the series “in vivo” (setting [5]), this compound had a half-life of 497 ± 204 min. The same compound had a half-life in “in vivo” (setting [6]) of 376 ± 58.6 min.

In the case of `O=C1C[C@@H](c2ccc(O)cc2)Oc2cc(O)ccc21` [liquiritigenin], in series [2], the “AUC0–t” value turned out to be 2.53 ± 0.662 ng·h/mL, the “AUC0–∞” value is on record as 2.81 ± 0.98 ng·h/mL and the MRT was found to be 9.83 ± 4.37 h. In “in vivo”, the AUC(0-t) amounted to 2.11 ± 1.73 ng·h/mL, the AUC(0-inf) came out at 2.22 ± 1.98 ng·h/mL, the Cmax was determined as 0.347 ± 0.276 ng/mL and the MRT was 8.48 ± 1.07 h. The same compound gave a half-life in the series “in vivo” (t1/2) of 234 ± 61.8 min.

`O=C1C[C@@H](c2ccc(O[C@@H]3O[C@H](CO)[C@@H](O)[C@H](O)[C@H]3O)cc2)Oc2cc(O)ccc21` [liquiritin]: in series [2], the “AUC0–t” value worked out at 7.66 ± 2.60 ng·h/mL, the “AUC0–∞” value is 9.14 ± 4.02 ng·h/mL and the MRT turned out to be 10.2 ± 5.77 h. Further, in the series “in vivo”, the exposure AUC(0-t) was 6.01 ± 1.52 ng·h/mL, the total exposure AUC(0-inf) came out at 7.37 ± 2.08 ng·h/mL, the MRT is 10.3 ± 2.3 h and the time of peak concentration (Tmax) was found to be 17.4 ± 10.2 min. The half-life in “in vivo” (t1/2) was 346 ± 21.6 min.

Turning to `O=c1cc(-c2ccc(O)c(O)c2)oc2cc(O[C@@H]3O[C@H](CO)[C@@H](O)[C@H](O)[C@H]3O)cc(O)c12` [luteoloside], in series [2], the “AUC0–t” value was determined as 0.493 ± 0.147 ng·h/mL, the “AUC0–∞” value is reported as 0.869 ± 0.272 ng·h/mL and the mean residence time (MRT) was 29.4 ± 17.5 h. In addition, in the series “in vivo”, the AUC(0-t) came to 0.406 ± 0.055 ng·h/mL, the AUC(0-inf) came to 1.06 ± 0.47 ng·h/mL, the MRT came out at 50.5 ± 26.9 h and the time of peak concentration (Tmax) came out at 30 ± 19.8 min. The compound also had a half-life in the series “in vivo” (t1/2) of 2190 ± 1010 min.

For `C=C[C@H]1[C@H](O[C@@H]2O[C@H](CO)[C@@H](O)[C@H](O)[C@H]2O)OC=C2C(=O)OCC[C@H]21` [sweroside], in series [2], the “AUC0–t” value was 247 ± 58.0 ng·h/mL and the “AUC0–∞” value was determined as 281 ± 53.4 ng·h/mL. Moreover, in “in vivo”, the AUC(0-t) came out at 210 ± 75.7 ng·h/mL, the AUC(0-inf) turned out to be 294 ± 94.2 ng·h/mL, the peak concentration (Cmax) amounted to 28.9 ± 14.3 ng/mL and the Tmax is 94.8 ± 78.6 min.

As to `Cc1coc2c1C(=O)C(=O)c1c-2ccc2c(C)cccc12` [tanshinone I], in series [2], the “AUC0–t” value is listed as 4.54 ± 1.58 ng·h/mL. In “in vivo”, this compound came in with an AUC(0-t) of 3.62 ± 0.763 ng·h/mL, an AUC(0-inf) of 5.58 ± 2.56 ng·h/mL, a Cmax of 0.297 ± 0.115 ng/mL and an MRT of 18.2 ± 2.76 h. Further, in “in vivo”, the Tmax came to 480 min. The same compound had a half-life in the series “in vivo” (t1/2) of 642 ± 72 min.
